Results reported in patent US6358953B1, “Pterin antineoplastic agents” (priority 1998, dated 2002).

Tests used:
[1] = pterin suspensions tested by the NIH; cited from earlier work
[2] = system: C3H/HeN-MTV+ mammary gland adenocarcinoma; details: oral gavage 3/16 mL of 5 mM pterin in 1.25 mM CaCl2 daily (about 7 mg/kg/day) for 8 days; Figure One
Protocol: LaRusso, P., et al. Cancer Research 50: 4900-4905 (1990). T/C is the ratio between the median tumor volume (MTV) of the Test group of tumor producing mice and the MTV of the Control group of mice. […] The median tumor volume of each group is determined, including zeros (remissions), for each day of measurement. The T/C value in percentage is an indication of antitumor effectiveness (Figure Two). A T/C equal to or less than 42% is considered significant antitumor activity. A T/C value <10% is indicative of a high degree of antitumor activity and is the level used by the National Cancer Institute to justify systematic toxicology studies preliminary to Investigational New Drug (IND) filing (termed DN-2 level activity).
The A-line at 42% represents the level of activity established by the N.C.I. for “significant antitumor activity”. The B-line at about 10% depicts the level representing a “high degree of antitumor activity”.

[3] = Treatment toxicity (body weight reduction) in athymic nude mice; format: in vivo; details: oral gavage once daily for 14 days; assessed from reductions in body weight
Protocol: MDA MB 231 breast cancer cells (5,000,000 cells in 100 uL of phosphate buffered saline) were injected subcutaneously into the right leg of female immunodeficient athymic nude mice. When the tumors reached a mean diameter of 3-5 mm, the mice were divided into two groups (8 mice per treatment group), and the treatment begun. The mice were treated by oral gavage once daily for 14 days with either 3/16 mL of the vehicle control (water) or with 3/16 mL of 5 mM CaCl2 .Pterin from Example 2.
Tumor dimensions and body weights were measured 4 times weekly for approximately three weeks from the start of treatment. Tumors were measured in three planes using Vernier calipers, and tumor volume (V) was calculated as follows: V=pi(x x y x z)/6, where x, y, and z are the tumor measurements minus skin thickness. The mean tumor volume was calculated at each time point. For each group, the mean of the ratio V/Vo was plotted as a function of time after treatment, and tumor growth delay calculated. Treatment toxicity was assessed from reductions in body weight after treatment. The mice were sacrificed if their tumor volumes reached greater than or equal to 1600 mm^3 or weight loss exceeded 25%.

[4] = system: MDA MB 231 breast cancer cells; test: Human breast tumor xenograft in athymic nude mice, oral gavage; format: in vivo; details: oral gavage once daily for 14 days, 3/16 mL, Figure Three
Source text: This study evaluated the activity of the test agent, CaPterin, on human mammary tumor xenografts in mice. Athymic nude (nu/nu) female mice, age 3-4 weeks, were purchased from Harlan Spreague Dawley, Inc. (Indianapolis, Ind.). The animals were housed four per cage in sterile filter-topped cages in ventilated cage racks and Microisolator™ cages (LabProducts, DE). Upon arrival, the mice were quarantined for at least four working days before use. The animal facility is AAALAC-accredited. Temperature is maintained at 72+/−5° F. and relative humidity at 35-70%; a 12-hour light/dark cycle was used. The mice were fed sterile, autoclavable, certified Purina rodent chow ad libitum. […] The water supply is analyzed quarterly for metals and trace contaminants. […]
Tumor dimensions and body weights were measured 4 times weekly for approximately three weeks from the start of treatment. Tumors were measured in three planes using Vernier calipers, and tumor volume (V) was calculated as follows: V=pi(x x y x z)/6, where x, y, and z are the tumor measurements minus skin thickness. The mean tumor volume was calculated at each time point. For each group, the mean of the ratio V/Vo was plotted as a function of time after treatment, and tumor growth delay calculated. Treatment toxicity was assessed from reductions in body weight after treatment. […]

## Nc1nc2nccnc2c(=O)[nH]1 [Pterin]
[1]
  antineoplastic activity: no significant antineoplastic activity

## CaCl2(pterin)4
[2]
  median tumor volume (MTV) relative to controls: strongly regresses tumor growth relative to controls

## CaCl2(pterin)4 [CaPterin]
[3]
  toxicity throughout the course of treatment: no evidence of toxicity
[4]
  mean growth response as relative tumor volume (V/Vo) relative to controls: strongly regresses tumor growth relative to controls
